Values of other authors, collected in patent US5530141A, “2,4-diaryl-1,3-dithiolanes; 2,4-diaryl-1,3-dioxolanes; 2,4-diaryl-1,3-oxathiolanes; and 2,5-diaryl-1,3-oxathiolanes for the treatment of disorders mediated by platelet activating factor or products of 5-lipoxygenase” (Center for Innovative Technology, priority 1992, dated 1996).

What was measured:
[1] = cited from earlier work
PAF receptor sites = settings: cited from earlier work
[2] = system: PAF-induced rat cutaneous vascular permeability; settings: cited from earlier work
5-lipoxygenase = settings: cited from earlier work

Molecule | plasma half life [1] | inhibits the binding of tritiated PAF to PAF receptor sites (PAF receptor sites; Hwang et al. 1985) | potency of trans-L-652,731 relative to cis-L-652,731 (PAF receptor sites; more potent than cis-L-652,731) | inhibition of PAF-induced rat cutaneous vascular permeability ([2]; dosage of 30 mg/kg body weight, rat) | oral activity ([2]; oral) | effect on the enzyme 5-lipoxygenase (5-lipoxygenase)
1-O-alkyl-2-acetyl-sn-glycerol-3-phosphorylcholine [PAF] | 2 to 4 min | – | – | – | – | –
COc1cc([C@H]2CC[C@H](c3cc(OC)c(OC)c(OC)c3)O2)cc(OC)c1OC (relative stereo) [L-652,731, trans-2,5-bis-(3,4,5-trimethoxyphenyl) tetrahydrofuran] | – | inhibits the binding of tritiated PAF to PAF receptor sites | approximately 1000 times | inhibit PAF-induced rat cutaneous vascular permeability | orally active | no effect on the enzyme 5-lipoxygenase
